The source of these data is US5264423A, “Inhibitors for replication of retroviruses and for the expression of oncogene products” (The United States of America as represented by the …, priority 1992, dated 1993).

For data set [1], the system named is c-myc protein in HL60 cells. The data set can be described thus: c-myc protein reduction. The format is cell-based.
The subject of data set [2] is HL60 cells. The data set can be described thus: DNA synthesis (3H-thymidine incorporation) in HL60 cells. The format is cell-based. The settings on record: 50 uM, day 1. Here is the method: To obtain the results shown in FIG. 4, nonsense or antisense S-ODNs were added at a final concentration of 50 uM on day 0 to cells seeded at 3×10^5/ml. DNA synthesis was determined on day 1 by incubating cells with 1 uCi 3H-thymidine for 4 hours, after which time 10% trichloroacetic acid was added and acid precipitatable radioactivity was trapped on Sihatman glass fiber filters. The filters were subjected to liquid scintillation counting to determine levels of radioactivity.

For data set [3], the system named is HL60 cells. The data set can be described thus: HL60 cell growth (cell count). Type of data set: cell-based.
Data set [4] relates to snake venom (SV) phosphodiesterase. Nature of the data set: Nuclease susceptibility, snake venom phosphodiesterase. Type of data set: in vitro ADME. From the text:
(§1) Several oligodeoxynucleotides were studied with regard to DNase sensitivity, cf. Table 5. These include cytidine homopolymers, ODN-4 (an anti-message 28-mer complementary to the 3' region of the art/trs region of HIV BH10 clone), and myc-1 (a 15-mer complementary to the initiation codon region of the C-myc oncogene). The DNases employed were predominantly endonuclease S1, the exo- and endonuclease P1, and snake venom (SV) phosphodiesterase. The concentration of S1 nuclease was ten-fold higher (100 micromoles/ml) for reactions of oligo-dc, since both the normal and PS analog were degraded extremely slowly be this enzyme. S1 and P1 nuclease digestion proceeded at 2-45 times more slowly for the S-ODNs than for the normal oligomers, with the […] being somewhat more readily digested than the 28-mer.

A further data set deals with endonuclease S1. Nature of the data set: Nuclease susceptibility, S1 nuclease. Type of data set: in vitro ADME.
From the text: as §1

Another data set concerns exo- and endonuclease P1. Nature of the data set: Nuclease susceptibility, P1 nuclease. The format is in vitro ADME.
From the text: as §1

The subject of data set [5] is HIV p24 gag protein in chronically HIV-infected H9 cells. Nature of the data set: HIV gag protein expression in chronically HIV-infected H9 cells, indirect immunofluorescence. Type of data set: cell-based. Here is the method: The percentage of cells expressing p24 gag protein of HIV was determined by indirect immunofluorescence microscopy by using anti-HIV p24 murine monoclonal antibody.
Generally, it has been assumed that anti-sense sequences inhibit the expression of various genes by translation arrest, i.e. that they bind to MRNA and block its translation. In order to test this possibility, gag protein synthesis was analyzed in chronically HIV-infected and -producing H9 cells by indirect immunofluorescent assay under a microscope. […] Alternatively, the level of any translation arrest could have been below the threshold of detection by indirect immunofluorescent assay under a microscope. […] Therefore, one mechanism for the antiviral effect could depend on blocking viral replication perhaps prior to, or at the stage of, pro-viral DNA synthesis.

Data set [6] relates to ATH8 cells (printed AT[18). Nature of the data set: Cell uptake of 35S-phosphorothioate end-labelled oligomer, ATH8 cells. The format is in vitro ADME. The following applies: within several minutes. From the text: (§2) Phosphatase-resistant 35S-phosphorothioate end-labelled S-dC28 was employed to investigate the permeability of target cells.
Data set [7] concerns HIV (HTLV-IIIB) in ATH8 cells. Nature of the data set: HIV cytopathic effect inhibition (viable ATH8 cells, trypan blue). Here is the method:
FIGS. 1A-1D and Table 1, The target cells (2×10^5 ATH8 cells) in each tube were pretreated with the stated concentration of each oligomer for 16 hours and then incubated with Polybrene for 45 minutes. After centrifugation, each set of pelleted cells was exposed to HIV (500 virions per cell, which is a much higher dose than the minimal cytopathic dose) and incubated for one hour. Complete media (2 ml RPMI1640) supplemented with L-glutamine (4 mti), 2-mercaptoethanol ([…]), penicillin (50 unit/ml), and streptomycin (50 micrograms/ml), and containing 15% fetal calf serum and IL-2 (15% of conventional IL-2 from Advanced Biotechnologies, Inc., Silver Spring, MD, plus 20 unit/ml of recombinant IL-2 from Amgen Biochemicals, Thousand Oaks, CA) with the various concentrations of oligomers added. The number of viable cells were counted in a hemocytometer using the trypan blue exclusion method for day 7 following exposure to the virus. Filled columns represent non-virus exposed cells, and dotted columns represent virus exposed cells.
The HIV cytopathic effect inhibition with oligodeoxynucleotides was performed with 18 hours of pretreatment of 2×10^5 target cells (ATH8 cells) with oligos prior to exposure to HTLV-IIIB. After this pretreatment, target cells were treated with Polybrene (2 micrograms/ml) for one hour. The target cells were then, respectively, exposed to HTLV-IIIB virus (generally 500 virions per cell in this series of experiments) for one hour. The 2×10^5 cells were then diluted to 2 ml with complete media containing IL-2 and various concentrations of oligos.
The number of viable cells was counted in a hemocytometer using the trypan blue exclusion method on day 7 following exposure to the virus. Each set of data were obtained from simultaneously performed experiments so as to make a precise comparison among agents tested.
The target cells (2×10^5 ATH8 cells per tube) were preincubated with the stated concentrations of S-dC14 for 24 hours and pretreated with 2 micrograms/ml of Polybrene for 45 minutes. After centrifugation, pelleted cells were exposed to the HIV (1000 virions per cell) for one hour. The cells were incubated in 2 ml of complete media containing IL-2, and the viable cells were counted on day 13.
On day 13 after the exposure to the virus, viable cells were counted by the trypan blue dye exclusion method.

The nature of a further data set: Solubility. The format is physicochemical. The settings on record: acetate salts. From the text: The phosphorothioate oligodeoxynucleotides of the present invention have suitable chemical characteristics, namely, the ability to hybridize with complementary DNA/MRNA under physiological conditions, and better solubility properties relative to methylphosphonates. Moreover, the thioesters are as soluble in biological media as the parent compounds.
Oligodeoxynucleotides with blocks of phosphorothioates at the 3' or 5' ends were synthesized by automatically changing the oxidation cycle at the required point. […] Introduction of a small amount of ammonia vapor, not aqueous ammonia, by a Pasteur PiPette solubilized all the solids. The yield determined from absorbance at lambda max was about 30%.

Data set [8] relates to T4, HLA-DR, T8, T3, or Tac antigen on the cell surface of ATH8 cells. The data set can be described thus: Cell surface antigens by fluorescent-activated cytofluorometry. The format is cell-based. The following applies: 1 micromole (printed i), sixteen hours. How it is done:
(§3) The possibility that the S-ODN analogs may interfere with HIV binding to target cells was tested.

The test system of data set [9] is T4 molecule in T4 cells (H9 cells). The data set can be described thus: Specific binding of radiolabelled HIV to T4 molecule. How it is done: as §3
In a further data set the test system is H9 cells. The data set can be described thus: Cell uptake of 35S-phosphorothioate end-labelled oligomer, H9 cells. The format is in vitro ADME. The following applies: within several minutes.
From the text: as §2

Data set [10] has as its system de novo HIV DNA synthesis in ATH8 cells. Nature of the data set: Southern blot of de novo HIV DNA synthesis. Type of data set: cell-based. The settings on record: days 4 and 7. From the text: Target cells (1×10^7 ATH8 cells) were pretreated with or without S-dC28 at various concentrations for sixteen hours, then treated with Polynrene, exposed to HIV (500 virus particles per cell), resuspended, and cultured in the presence or absence of S-dC28. On days 4 and 7 following the exposure to the virus, high molecular weight DNA was extracted, digested with Asp718 (a Kpn I isoschizomer from Boehringer-tiannheim, Indianapolis, IN), and subjected to Southern blot analysis hybridized with a labelled insert of molecular clone of the env region of HTLV-III (BH10) containing a 1.3 Kb Bgl II fragment.
FIGS. 6A-6D show the inhibitor effect of the phosphorothioate oligodeoxycytidine analog (S-dC28) on de novo HIV DNA synthesis in target cells. On days 4 and 7 following the exposure to the virus, a substantial amount of viral DNA was detected by Southern blot analysis without antiviral agents.
On day 4, shown in lanes A-E, and day 7, shown in lanes F-J, following exposure to the virus, high molecular weight DNA was extracted. Lanes A and F contain DNA from ATH8 cells that were exposed to the virus and not protected by S-dC28. Lanes B and G, C and H, D and I, contain DNA from ATH8 cells pretreated and cultured with 1 micromole, 5 micromoles, and 7 micromoles S-dC28, respectively. Lanes E and J contain DNA from ATH8 cells treated with 50 micromoles 2', 3'-dideoxyadenonsine, and lane K contains DNA from ATH8 cells that was not exposed to the virus.

Entries after “also recorded” stand apart in the source; their conditions may differ. Where only a bound is given, the exact number is not on record here.

For the substance dAACGTTGAGGGGCAT [S-myc-1], the “reduction of c-myc protein” value in data set [1] was “reduction of c-myc protein”. In addition, the “inhibition of DNA synthesis (3H-thymidine incorporation)” value with HL60 cells [2] was “significant inhibition”. In addition, in the data set with HL60 cells [3], the “concentration relative to that required for the normal oligomer” value is “less than 1%”. The “duration of antiproliferative effects” value in the data set with HL60 cells [3] is given as “up to three days”. For the same substance, the “growth inhibition of HL60 cells at 0.1 micro M” value in the data set with HL60 cells [3] (0.1 micro M) was “effective”. The “effect on HL60 cell proliferation” value with HL60 cells [3] (in words) is “significant inhibition of cell proliferation”. Besides, the “Ratio = t1/2 PSoligo/t1/2 POoligo” value in data set [4] came out at 443; in the data set on endonuclease S1, 9; with exo- and endonuclease P1, 4. The “Nuclease susceptibility, t1/2” value in the data set with endonuclease S1 was 5.5 min.

As to (dC)n n = 28 [S-dC28], the “Percentage of gag positive cells” value was 82% in data set [5] (5 micro M, 8 hours in culture); 91% in [5] (5 micro M, 24 hours in culture); 85% in [5] (5 micro M, 72 hours in culture); 79% in data set [5] (5 micro M, 120 hours in culture); 74% in data set [5] (10 micro M, 8 hours in culture); 80% in data set [5] (10 micro M, 24 hours in culture). The “Percentage of gag positive cells” value amounted to 71% in data set [5] (10 micro M, 72 hours in culture); 82% in data set [5] (10 micro M, 120 hours in culture); 69% in data set [5] (25 micro M, 8 hours in culture); 86% in [5] (25 micro M, 24 hours in culture); 75% in data set [5] (25 micro M, 72 hours in culture); 74% in data set [5] (25 micro M, 120 hours in culture). Moreover, the gag protein positivity result in [5] (concentrations as high as 25 micromoles, 120 hours) was “failed to reduce gag protein positivity; also recorded: did not inhibit gag protein positivity”. For the same substance, the “uptake (increase of radioactivity)” value (in [6]; in the data set on H9 cells) was “Significant increases of radioactivity” in each case. The “protection against the virus / antiviral activity” value in data set [7] (0.5 micromoles) is given as “complete protection against the virus; also recorded: complete antiviral activity; also recorded: potent antiHIV activity”. For the same substance, the “inhibition of viral replication and protection of ATH8 cells from HIV” value in [7] (3 micromoles, day 7) is 100%. Further, the “in vitro therapeutic index (ratio of cytotoxic to effective concentration)” value in [7] (compared with dideoxycytidine and dideoxyadenosine) was “comparable in vitro index to those of dideoxycytidine and dideoxyadenosine”. In data set [7] (in words), the “anti-HIV activity (cytopathic effect)” value is “most consistent and durable antiviral effects”. The “solubility in 1 M NaCl” value in “Solubility” is “extremely insoluble in 1 M NaCl”. In addition, the “changes in T4, HLA-DR, T8, T3, or Tac antigen” value in data set [8] is on record as “no detectable changes”. In data set [9], the “inhibition of specific binding of labelled virus to T4” value is recorded as “No inhibition”. The “Nuclease susceptibility, t1/2” value in data set [4] is over 27.7778 h. The “Ratio = t1/2 PSoligo/t1/2 POoligo” value in data set [4] is over 1400; in the data set with endonuclease S1, 2; with exo- and endonuclease P1, 15. For the same substance, the “2.7 Kb env-containing KPN I viral DNA fragment detection” value in data set [10] (1, 5 and 7 micromoles, lanes B-D, G-I) was “detected only in lanes A and F”. In addition, the “inhibition of de novo synthesis of viral DNA” value in data set [10] (concentrations as low as / down to 1 micromolar) is “significantly inhibited the de novo synthesis of viral DNA; also recorded: complete inhibition”.
